Assay results: patent US5654274A, “Biologically active peptides having N-terminal substitutions” (priority 1995, dated 1997)
Ends that are not written are not given here. Peptide text beside a SMILES is read from it. * marks the point of attachment. Octanoyl = CCCCCCCC(=O)*

Legend:
Type in all cases: cell-based
C. albicans = experiment: MIC microtiter assay, C. albicans; details: Mueller Hinton broth, 16-20 hours at 37° C.
Description: (§1) Table I, which follows, indicates the Minimal Inhibitory Concentration (MIC) in μg/ml of various peptides, against S. aureus strain ATCC 25923(S), P. aeruginosa strain ATCC 27853(P), and E. coli ATCC strain 25922(E), and C. albicans (CA). […] The peptides ere unsubstituted at the N-terminal, substituted with an acetyl group at the N-terminal as indicated by Ac-; substituted with an octanoyl group at the N-terminal as indicated by Oct-, substituted with sphingosine as indicated by Sph-; substituted with a succinyl group, as indicated by Suc-; substituted with a hexanoyl group, as indicated by Hex-; substituted with a heptanoyl group, as indicated by Hep; substituted with a valeryl group, as indicated by Val-; substituted with, a myristryl group, as indicated by Myr-; or substituted with an ibuprofyl group, as indicated by Ibu-.
The procedure for the antibacterial assay is based upon the guidelines of the National Committee for Clinical Laboratory Standards, Document M7-T2, Volume 8, No. 8, 1988.
Stock solutions of peptides with and without the appropriate substitutions,are prepared at a concentration of 512 μg/ml in sterile deionized distilled water and stored at -70° C. Each peptide is a C-terminal amide.
The stock peptide solution is diluted in serial dilutions (1:2) down the wells of a microtiter plate so that the final concentrations of peptides in the wells are 0.25, 0.50, 1, 2, 4, 8, 16, 32, 64, 128, and 256 μg/ml. 1-5×10^5 CFUs/ml of either S. aureus ATCC 25923, E. coli ATCC 25922, P. aeruginosa ATCC 27853, or C. albicans, were added to the wells in full strength Mueller Hinton broth (BBL 11443) from a mid-log culture. The inoculum is standardized spectrophotometrically at 600 nm and is verified by colony counts. The plates are incubated for 16-20 hours at 37° C., and the minimal inhibitory concentration (MIC) for each peptide is determined. Minimal inhibitory concentration is defined as the lowest concentration of peptide which produces a clear well in the microtiter plate. […]

[1] = system: E. coli ATCC strain 25922; experiment: Antibacterial MIC microtiter assay (NCCLS M7-T2), E. coli; details: E. coli ATCC 25922; Mueller Hinton broth, 16-20 hours at 37° C.
Description: as §1
(§2) The procedure for the antibacterial assay is based upon the guidelines of the National Committee for Clinical Laboratory Standards, Document M7-T2, Volume 8, No. 8, 1988. […]
(§3) The stock peptide solution is diluted in serial dilutions (1:2) down the wells of a microtiter plate so that the final concentrations of peptides in the wells are 0.25, 0.50, 1, 2, 4, 8, 16, 32, 64, 128, and 256 μg/ml. […] The plates are incubated for 16-20 hours at 37° C., and the minimal inhibitory concentration (MIC) for each peptide is determined. […]

[2] = system: P. aeruginosa strain ATCC 27853; experiment: Antibacterial MIC microtiter assay (NCCLS M7-T2), P. aeruginosa; details: P. aeruginosa ATCC 27853; Mueller Hinton broth, 16-20 hours at 37° C.
Description: as §1, §2, §3

[3] = system: S. aureus strain ATCC 25923; experiment: Antibacterial MIC microtiter assay (NCCLS M7-T2), S. aureus; details: S. aureus ATCC 25923; Mueller Hinton broth, 16-20 hours at 37° C.
Description: as §1, §2, §3

P. gingivalis = experiment: Anaerobic antimicrobial susceptibility test (NCCLS M11-T2), P. gingivalis; details: 24-48 hours; for MIC P. gingivalis (strain) 9-14K-1: strain 9-14K-1, BHI broth; for MIC P. gingivalis (strain) 381: strain 381, BHI broth; for MIC P. gingivalis (strain) A7A1-28: strain A7A1-28, BHI broth; for MIC P. gingivalis (strain) FAY-19M-1: strain FAY-19M-1, BHI broth; for MIC P. gingivalis (strain) W50: strain W50, BHI broth
A. viscosus = experiment: Anaerobic antimicrobial susceptibility test (NCCLS M11-T2), A. viscosus; details: BHI broth, 24-48 hours
S. mutans = experiment: Anaerobic antimicrobial susceptibility test (NCCLS M11-T2), S. mutans; details: BHI broth, 24-48 hours

Row | Compound | Minimal Inhibitory Concentration CA (C. albicans) [µg/mL] | Minimal Inhibitory Concentration E [1] [µg/mL] | Minimal Inhibitory Concentration P [2] [µg/mL] | Minimal Inhibitory Concentration S [3] [µg/mL] | MIC P. gingivalis (strain) 9-14K-1 (P. gingivalis) [μl/ml] | MIC P. gingivalis (strain) 381 (P. gingivalis) [μl/ml] | MIC P. gingivalis (strain) A7A1-28 (P. gingivalis) [μl/ml] | MIC P. gingivalis (strain) FAY-19M-1 (P. gingivalis) | MIC P. gingivalis (strain) W50 (P. gingivalis) [μl/ml] | MIC A. viscos (A. viscosus) [μl/ml] | MIC S. mutans (S. mutans) [μl/ml]
1 | CCCCCCCC(=O)N[C@@H](CCCCN)C(=O)N[C@@H](Cc1c[nH]c2ccccc12)C(=O)N[C@@H](CCCCN)C(=O)N[C@@H](CC(C)C)C(=O)N[C@@H](Cc1ccccc1)C(=O)N[C@@H](CCCCN)C(=O)N[C@@H](CCCCN)C(=O)N[C@H](C(=O)N[C@@H](CCC(=O)O)C(=O)N[C@@H](CCCCN)C(=O)N[C@H](C(N)=O)C(C)C)[C@@H](C)CC [Oct-(SEQ ID NO: 136)-NH2] (Octanoyl-KWKLFKKIEKV-NH2) | 128 |  |  |  |  |  |  |  |  |  | 
2 | CCCCCCCC(=O)NCC(=O)N[C@H](C(=O)N[C@@H](CCCCN)C(=O)N[C@@H](CCCCN)C(=O)N[C@@H](Cc1ccccc1)C(=O)N[C@@H](CC(C)C)C(=O)N[C@@H](CCCCN)C(=O)N[C@@H](CCCCN)C(=O)N[C@@H](C)C(=O)NCC(=O)N[C@@H](CCCCN)C(=O)N[C@@H](Cc1ccccc1)C(=O)NCC(=O)N[C@@H](CCCCN)C(=O)N[C@@H](C)C(=O)N[C@@H](Cc1ccccc1)C(N)=O)[C@@H](C)CC [Oct-(SEQ ID NO: 149)-NH2] (Octanoyl-GIKKFLKKAGKFGKAF-NH2) | 128 |  |  |  |  |  |  |  |  |  | 
3 | (SEQ ID NO: 27)-OH: unsubstituted (Lys Ile Ala Gly Lys Ile Ala)3, C-terminal OH (KIAGKIAKIAGKIAKIAGKIA-OH) |  | 8 | 128 | 128 |  |  |  |  |  |  | 
4 | (SEQ ID NO: 86)-OH: unsubstituted (Lys Ile Ala Lys Lys Ile Ala)3, C-terminal OH (KIAKKIAKIAKKIAKIAKKIA-OH) | 256 | 2 | 32 | 128 | 16 | 16 | 4 | 8 μl/ml | 4 | 32 | 16
5 | KIAKKIAKIAKKIAKIAKKIA-NH2 [(SEQ ID NO: 86)-NH2] |  |  |  |  | 8 | 8 | 2 | 8,128 μl/ml | 4 | 16 | 4
